Source: US4266077A, “Naphthalenetetrayltetrakis(sulfonylimino)-aryl multicarboxylic acids and salts thereof” (priority 1979, dated 1981)
Read-outs that look alike come from different tables or passages of the source.

Key:
activated human C1 = target: T1, activated human C1 (Homo sapiens, UniProt P09871); test: Test Code 026 (C1 inhibitor); assay type: biochemical; conditions: serial dilution assay, twofold dilutions; higher well number indicates higher activity
T1 construct: C1r and C1s cleaved to two-chain proteases
Description: (§1) An active inhibitor protects C2 from C1 and C4; (ii) Test Code 035 (C3-C9 inhibitor): This test determines the ability of the late components of human complement (C3-C9) to lyse EAC 142 in the presence of appropriate dilutions of the test compound. An active inhibitor protects EAC 142 from lysis by human C3-C9; (iii) Test Code 036 (C-Shunt inhibitor): In this test human erythrocytes rendered fragile are lysed in autologous serum via the shunt pathway activated by cobra venom factor in the presence of appropriate dilutions of the test compound. Inhibition of the shunt pathway results in failure of lysis; (iv) Forssman Vasculitis Test: Here, the well known complement dependent lesion, Forssman vasculitis, is produced in guinea pigs by intradermal injection of rabbit anti-Forssman antiserum. […] Percent inhibition is calculated by comparison with simultaneous controls. […]

[1] = system: late components of human complement (C3-C9); test: Test Code 035 (C3-C9 inhibitor), lysis of EAC 142; assay type: biochemical; conditions: serial dilution assay, twofold dilutions; higher well number indicates higher activity
Description: as §1

[2] = system: shunt pathway activated by cobra venom factor; test: Test Code 036 (C-Shunt inhibitor), lysis of human erythrocytes in autologous serum; assay type: biochemical; conditions: serial dilution assay, twofold dilutions; higher well number indicates higher activity
Description: as §1

[3] = system: complement activity of sera; test: Guinea Pig Intraperitoneal Test (GPIP); assay type: in vivo; conditions: Cavia porcellus, ip, 200 mg./kg. i.p.
Description: An active inhibitor protects C2 from C1 and C4; (ii) Test Code 035 (C3-C9 inhibitor): This test determines the ability of the late components of human complement (C3-C9) to lyse EAC 142 in the presence of appropriate dilutions of the test compound. An active inhibitor protects EAC 142 from lysis by human C3-C9; (iii) Test Code 036 (C-Shunt inhibitor): In this test human erythrocytes rendered fragile are lysed in autologous serum via the shunt pathway activated by cobra venom factor in the presence of appropriate dilutions of the test compound. Inhibition of the shunt pathway results in failure of lysis; (iv) Forssman Vasculitis Test: Here, the well known complement dependent lesion, Forssman vasculitis, is produced in guinea pigs by intradermal injection of rabbit anti-Forssman antiserum. The lesion is measured in terms of diameter, edema and hemorrhage and the extent to which a combined index of these is inhibited by prior intraperitoneal injection of the test compound at 200 mg./kg. is then reported, unless otherwise stated; (v) Forssman Shock Test: Lethal shock is produced in guinea pigs by an i.v. injection of anti-Forssman antiserum and the harmonic mean death time of treated guinea pigs is compared with that of simultaneous controls; (vi) Complement Level Reduction Test: In this test, the above dosed guinea pigs, or others, are bled for serum and the complement level is determined in undiluted serum by the capillary tube method of U.S. Pat. No. 3,876,376 and compared to undosed control guinea pigs; (vii) Cap 50 Test: Here, appropriate amounts of the test compound are added to a pool of guinea pig serum in vitro, after which the undiluted serum capillary tube assay referred to above is run. The concentration of compound inhibiting 50% is reported; (viii) Guinea Pig Intraperitoneal Test (GPIP): Guinea pigs weighing about 300 g. are dosed intraperitoneally (i.p.) with 200 mg./kg. of the test compound dissolved in saline and adjusted to pH 7-8. Approximately 0.4 ml. blood samples, taken by orbital sinus puncture 30 minutes and one hour after injections, are collected directly into centrifuge tubes; 5 ml. blood samples, taken by decapitation 2 hours after injection are collected directly into diSPo® beakers. The samples were allowed to clot, centrifuged, and the resultant sera are assayed for complement activity using the capillary complement assay. Percent inhibition is calculated by comparison with simultaneous controls. The results appear in Table I together with results of Test Code 026, 035, 036, Cap 50 and % Inhibition.

[4] = 0.5 h, serum 30 minutes after injection, read-out: In Vivo Activity (Guinea Pig) % Inhibition Intraperitoneal, 30 minutes
[5] = 1 h, serum 60 minutes after injection, read-out: In Vivo Activity (Guinea Pig) % Inhibition Intraperitoneal, 60 minutes
[6] = 2 h, serum 120 minutes after injection, read-out: In Vivo Activity (Guinea Pig) % Inhibition Intraperitoneal, 120 minutes

T1 sequence (P09871 16-688): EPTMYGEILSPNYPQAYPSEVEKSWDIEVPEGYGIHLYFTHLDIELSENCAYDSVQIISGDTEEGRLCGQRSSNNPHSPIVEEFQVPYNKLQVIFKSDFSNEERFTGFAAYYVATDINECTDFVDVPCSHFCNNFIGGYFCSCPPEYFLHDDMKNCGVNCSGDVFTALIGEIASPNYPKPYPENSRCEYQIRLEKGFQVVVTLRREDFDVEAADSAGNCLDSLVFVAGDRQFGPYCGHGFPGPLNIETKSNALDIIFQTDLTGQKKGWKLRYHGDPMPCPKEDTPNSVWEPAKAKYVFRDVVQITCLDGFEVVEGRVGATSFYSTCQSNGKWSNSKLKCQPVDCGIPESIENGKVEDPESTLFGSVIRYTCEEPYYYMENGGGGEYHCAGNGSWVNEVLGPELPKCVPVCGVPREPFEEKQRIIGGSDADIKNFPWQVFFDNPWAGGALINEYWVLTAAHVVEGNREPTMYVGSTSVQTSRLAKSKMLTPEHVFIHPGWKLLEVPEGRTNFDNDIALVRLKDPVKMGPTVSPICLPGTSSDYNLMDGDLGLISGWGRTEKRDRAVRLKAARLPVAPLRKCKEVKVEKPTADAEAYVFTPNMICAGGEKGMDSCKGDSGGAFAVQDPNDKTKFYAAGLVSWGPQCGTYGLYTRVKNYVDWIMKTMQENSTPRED
T1 sequence (P00736 18-705 partner): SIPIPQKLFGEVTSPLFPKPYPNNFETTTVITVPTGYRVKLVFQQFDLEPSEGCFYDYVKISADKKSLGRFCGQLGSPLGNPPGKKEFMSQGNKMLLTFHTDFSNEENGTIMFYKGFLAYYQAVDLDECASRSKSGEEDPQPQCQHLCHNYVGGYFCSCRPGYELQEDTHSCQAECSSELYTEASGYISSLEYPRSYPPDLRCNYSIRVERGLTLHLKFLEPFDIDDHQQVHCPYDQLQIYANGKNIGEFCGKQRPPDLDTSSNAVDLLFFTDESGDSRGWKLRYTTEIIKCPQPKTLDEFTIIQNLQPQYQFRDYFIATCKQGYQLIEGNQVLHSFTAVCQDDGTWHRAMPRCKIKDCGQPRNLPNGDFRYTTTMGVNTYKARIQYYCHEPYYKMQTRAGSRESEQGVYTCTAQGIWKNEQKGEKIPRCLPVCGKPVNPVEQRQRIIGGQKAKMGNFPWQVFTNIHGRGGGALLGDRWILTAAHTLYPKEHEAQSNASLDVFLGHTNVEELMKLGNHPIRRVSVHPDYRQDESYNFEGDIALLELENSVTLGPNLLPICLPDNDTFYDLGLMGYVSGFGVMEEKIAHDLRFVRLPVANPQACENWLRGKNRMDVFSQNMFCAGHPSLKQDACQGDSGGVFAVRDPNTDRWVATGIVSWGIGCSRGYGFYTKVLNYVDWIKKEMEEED
T1 sequence (P02745 23-245 partner): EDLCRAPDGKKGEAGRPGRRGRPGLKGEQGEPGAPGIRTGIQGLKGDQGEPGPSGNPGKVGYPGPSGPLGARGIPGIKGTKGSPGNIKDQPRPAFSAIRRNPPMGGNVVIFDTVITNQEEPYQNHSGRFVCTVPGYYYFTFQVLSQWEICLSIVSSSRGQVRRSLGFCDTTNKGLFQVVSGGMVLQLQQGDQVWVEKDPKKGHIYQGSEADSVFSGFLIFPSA
T1 sequence (P02746 28-253 partner): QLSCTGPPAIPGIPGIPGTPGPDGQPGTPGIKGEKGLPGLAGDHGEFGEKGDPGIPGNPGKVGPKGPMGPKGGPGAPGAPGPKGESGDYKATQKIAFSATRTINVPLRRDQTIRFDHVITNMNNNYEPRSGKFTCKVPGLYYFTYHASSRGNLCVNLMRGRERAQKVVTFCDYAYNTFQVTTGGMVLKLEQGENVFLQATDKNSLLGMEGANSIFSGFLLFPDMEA
T1 sequence (P02747 29-245 partner): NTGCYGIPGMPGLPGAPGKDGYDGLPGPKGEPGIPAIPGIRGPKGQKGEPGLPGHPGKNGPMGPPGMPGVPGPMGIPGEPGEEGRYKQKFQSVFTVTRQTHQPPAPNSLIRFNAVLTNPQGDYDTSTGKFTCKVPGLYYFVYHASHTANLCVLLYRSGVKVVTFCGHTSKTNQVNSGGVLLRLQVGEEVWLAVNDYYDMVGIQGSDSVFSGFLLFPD

Row | Compound | Cl 026 Wells (activated human C1) | C-Late 035 Wells [1] | Shunt Inhibition 036 Wells [2] | inhibition at 200 mg/kg [3, 4] | inhibition at 200 mg/kg [3, 5] | inhibition at 200 mg/kg [3, 6]
1 | O=C([O-])c1cc(NS(=O)(=O)c2cc(S(=O)(=O)Nc3cc(C(=O)[O-])cc(C(=O)[O-])c3)c3cc(S(=O)(=O)Nc4cc(C(=O)[O-])cc(C(=O)[O-])c4)cc(S(=O)(=O)Nc4cc(C(=O)[O-])cc(C(=O)[O-])c4)c3c2)cc(C(=O)[O-])c1.[Na+].[Na+].[Na+].[Na+].[Na+].[Na+].[Na+].[Na+] [5,5',5",5'"-[1,3,5,7-Naphthalenetetrayltetrakis(sulfonylimino)]-tetra-1,3-benzenedicarboxylic acid, octasodium salt] | +7 Wells | +2 Wells | +6 Wells | -66% | -71% | -76%
2 | O=C([O-])c1cc(NS(=O)(=O)c2cc(S(=O)(=O)Nc3cc(C(=O)[O-])c(C(=O)[O-])c(C(=O)[O-])c3)c3cc(S(=O)(=O)Nc4cc(C(=O)[O-])c(C(=O)[O-])c(C(=O)[O-])c4)cc(S(=O)(=O)Nc4cc(C(=O)[O-])c(C(=O)[O-])c(C(=O)[O-])c4)c3c2)cc(C(=O)[O-])c1C(=O)[O-].[Na+].[Na+].[Na+].[Na+].[Na+].[Na+].[Na+].[Na+].[Na+].[Na+].[Na+].[Na+] [5,5',5",5'"-[1,3,5,7-Naphthalenetetrayltetrakis[sulfonylimino)]-tetra-1,2,3-benzenetricarboxylic acid, dodecasodium salt] | +2 Wells | +4 Wells | +6 Wells | -80% | -77% | -85%
